What all share (type): functional, organism-based
The subject of one assay is Escherichia coli. As to the kind of experiment: Antimicrobial activity against Escherichia coli ATCC 35218 by standard disk assay.
The next assay relates to Pseudomonas aeruginosa. As to the kind of experiment: Antimicrobial activity against Pseudomonas aeruginosa ATCC 27853 by standard disk assay.
The subject of the next assay is Staphylococcus aureus. As to the kind of experiment: Antimicrobial activity against methicillin-resistant Staphylococcus aureus ATCC 43300 by standard disk assay.
The subject of assay [1] is Mycobacterium intracellulare. The assay can be described thus: Antimicrobial activity against Mycobacterium intracellular […] by alamar blue assay.
The subject of the next assay is Aspergillus fumigatus. As to the kind of experiment: Antimicrobial activity against Aspergillus fumigatus […] by standard disk assay.
A further assay deals with Candida albicans. As to the kind of experiment: Antimicrobial activity against Candida albicans ATCC 90028 by standard disk assay.
The test system of a further assay is Cryptococcus neoformans. As to the kind of experiment: Antimicrobial activity against Cryptococcus neoformans ATCC 90113 by standard disk assay.

Six compounds from ChEMBL document CHEMBL1154132, “Mycophenolic derivatives from Eupenicillium parvum” (J Nat Prod, 2008) can be followed below.

The source made the active and inactive calls. The calls are words filed in the database; no cut-off is given here.

As to `COc1c(C)c2c(c(O)c1C/C=C(\C)[C@@H](O)CC(=O)O)C(=O)OC2`, the outcome (in the assay with Escherichia coli; in the assay on Pseudomonas aeruginosa; in the assay on Staphylococcus aureus; in assay [1]; in the assay with Aspergillus fumigatus) was inactive.

As to `COC(=O)C[C@H](O)/C(C)=C/Cc1c(OC)c(C)c2c(c1OC)C(=O)OC2`, the result (with Escherichia coli; with Pseudomonas aeruginosa; in the assay on Staphylococcus aureus; in assay [1]; with Aspergillus fumigatus) was inactive.

On to `Cc1c(O)cc(O)c2c1COC2=O`, for which the outcome (in the assay on Escherichia coli; in the assay with Pseudomonas aeruginosa; in the assay on Staphylococcus aureus; in assay [1]; in the assay on Aspergillus fumigatus) was inactive.

As to `COc1c(C)c2c(c(O)c1CC[C@H](C)C(=O)O)C(=O)OC2`, the outcome (with Escherichia coli; with Pseudomonas aeruginosa; in assay [1]; in the assay with Aspergillus fumigatus) was inactive.

As to `Cc1c(O)c(CC[C@H](C)C(=O)O)c(O)c2c1COC2=O`, the result (in the assay with Escherichia coli; with Pseudomonas aeruginosa; with Staphylococcus aureus; in assay [1]; in the assay on Aspergillus fumigatus) was inactive.

Consider `COc1c(C)c2c(c(O)c1C/C=C(\C)CCC(=O)O)C(=O)OC2` [MYCOPHENOLIC ACID], for which the result (in the assay on Escherichia coli; in the assay on Pseudomonas aeruginosa; with Staphylococcus aureus; in assay [1]; with Aspergillus fumigatus) was inactive. The concentration for half-maximal inhibition (IC50) in the assay with Candida albicans came out at 8 µM; with Cryptococcus neoformans, 15 µM.
